Results taken from US8507562B2, “Synthesis of (1)-beta-elemene, (-)-beta-elemenal, (-)-beta-elemenol, (-)-beta-elemene fluoride and their analogues, intermediates, and composition and uses thereof” (HYWE Pharmaceuticals, Inc., priority 2004, dated 2013).
Read-outs that look alike come from different tables or passages of the source.

Tests used:
STTG1 brain tumor = test: MTT survival assay; assay type: cell-based, human
Protocol: (§1) The MTT assay is a commonly used method in evaluation of cell survival, based on the ability of viable cells to convert MTT, a soluble tetrazolium salt [3-(4,5-dimethylthuazole-2-yl)-2,5 diphenyl tetrazolium bromide], into an insoluble formazan precipitate, which is quantitated by spectrophotometry following solubilization in dimethyl sulfoxide (DMSO).
(§2) The cells were then solubilized in 125 μl of DMSO and absorbance readings were taken using a 96-well Opsys MRI Microplate Reader (ThermoLabsystems; Chantilly, Va.). The amount of MTT dye reduction was calculated based on the difference between absorbance at 570 nm and at 630 nm. Cell viability in treated cells was expressed as the amount of dye reduction relative to that of untreated control cells. The wells which contained only medium and 10 μl of MTT were used as blanks for the plate reader. Three sets of experiments were performed in 8-12 wells for each treatment.

[1] = Chronic toxicity study, 28 days i.p.; assay type: in vivo; conditions: rats
Protocol: In the Rat study, three groups of rats (n=20 per group, half male and half female) were given (i.p.) 7.5, 15, or 30 mg/kg/d of β-Elemene for 28 days consecutively. […] Ascites were not completely absorbed during 4 weeks without drug intake. […] The accumulated toxicity of β-Elemene (via i.p.) was not severe, except irritation at local injection site. The safe dose was 7.5 mg/kg/d.

[2] = tested on: Colon Cancer Cells HCT-116; test: MTS cell viability assay; assay type: cell-based, human; conditions: combinations with Elemene 160 μg/ml, n = 8
[3] = tested on: human breast cancer ao10/17
[4] = tested on: human glioma SHG-44G (xenograph under skin); test: Xenograph under skin, injection directly into tumor; assay type: in vivo, nude mice; conditions: for Tumor Weight X ± SD: in g (unit assumed)
Description: The mice were killed after 3 weeks.
Nude mice grew on the cengliu rack.

H-460 lung cancer = test: MTT survival assay; assay type: cell-based, human; conditions: 2 × 10^4 cells/ml
Protocol: as §1, §2
In brief, carcinoma cells treated with test articles alone, in 96-well tissue culture dishes were incubated with MTT (2 μg/ml) for 4 h. The cells were then solubilized in 125 μl of DMSO and absorbance readings were taken using a 96-well Opsys MRI Microplate Reader (ThermoLabsystems; Chantilly, Va.). The amount of MTT dye reduction was calculated based on the difference between absorbance at 570 nm and at 630 nm. Cell viability in treated cells was expressed as the amount of dye reduction relative to that of untreated control cells. The wells that contained only medium and 10 μl of MTT were used as blanks for the plate reader.
The cells were then solubilized in 125 μl of DMSO and absorbance readings were taken using a 96-well Opsys MRI Microplate Reader (ThermoLabsystems; Chantilly, Va.). The amount of MTT dye reduction was calculated based on the difference between absorbance at 570 nm and at 630 nm. Cell viability in treated cells was expressed as the amount of dye reduction relative to that of untreated control cells. The wells which contained only medium and 10 μI of MTT were used as blanks for the plate reader. Three sets of experiments were performed in 8-12 wells for each treatment.

human glioma cells = test: MTT assay, elemene analogs; assay type: cell-based
Protocol: as §1, §2

With (−)-Beta-elemene the IC50 (STTG1 brain tumor; STTG1, 24 h) was 112 µg/mL, the IC50 (STTG1 brain tumor; STTG1, 48 h) was 115 µg/mL and the IC50 (STTG1 brain tumor; STTG1, 72 h) was 112 µg/mL. The “changes, low dose group” value ([1]; 7.5 mg/kg/d i.p., 28 days) was “No significant changes”, the “mortality, high dose group” value ([1]; 30 mg/kg/d i.p., 28 days, n=20) was “Six rats in high dose group died” and the “ascites, medium and high dose groups” value ([1]; 15 and 30 mg/kg/d i.p., 28 days) was “Ascites were developed in all animals”. The safe dose ([1]; i.p., 28 days consecutively) was 7.5 mg/kg/day, the IC50 ([2]; HCT-116, 4 hr/24 hr × 2) was 203 ± 23.1 µg/mL and the IC50 ([2]; HCT-116, 4 hr/24 hr × 3) was 165 ± 22.0 µg/mL. The IC50 ([2]; HCT-116, 4 hr/24 hr) was 230 ± 25.2 µg/mL, the IC50 ([2]; HCT-116, 4 hr) was 363 ± 45.9 µg/mL and the IC50 ([2]; HCT-116, 8 hr) was 206 ± 24.2 µg/mL. For the same substance, the IC50 ([2]; HCT-116, 12 hr) was 201 ± 12.0 µg/mL, the IC50 ([2]; HCT-116, 24 hr) was 184 ± 26.1 µg/mL and the IC50 ([2]; HCT-116, 48 hr) was 163 ± 21.8 µg/mL. The IC50 ([2]; HCT-116, 72 hr) was 157 ± 22.0 µg/mL, the “Inhibition Rate %” value ([3]; 12.5 mg/kg/time iv × 10 bid) was 28.28% and the “Tumor Weight (g) X ± SD” value ([3]; 12.5 mg/kg/time iv × 10 bid) was 0.827 ± 0.06 g. For the same substance, the “Inhibition Rate %” value ([3]; 12.5 mg/kg/time iv × 10 bid, listed as β-Elemene) was 31.08%, the “Inhibition Rate %” value ([3]; 25 mg/kg/time iv × 10 bid) was 35.03% and the “Tumor Weight (g) X ± SD” value ([3]; 25 mg/kg/time iv × 10 bid) was 0.765 ± 0.1 g. For the same substance, the “Inhibition Rate %” value ([3]; 25 mg/kg/time iv × 10 bid, listed as β-Elemene) was 36.25%, the “Inhibition Rate %” value ([3]; 50 mg/kg/time iv × 10 bid) was 44.14% and the “Tumor Weight (g) X ± SD” value ([3]; 50 mg/kg/time iv × 10 bid) was 0.643 ± 0.1 g. For the same substance, the “Inhibition Rate %” value ([3]; 50 mg/kg/time iv × 10 bid, listed as β-Elemene) was 46.42%, the “Inhibition Rate %” value ([4]; 15 mg/kg it × 10 qd) was 37.83% and the “Tumor Weight X ± SD” value ([4]; 15 mg/kg it × 10 qd) was 1.15 ± 0.33. For the same substance, the “Inhibition Rate %” value ([4]; 30 mg/kg it × 10 qd) was 51.35%, the “Tumor Weight X ± SD” value ([4]; 30 mg/kg it × 10 qd) was 0.90 ± 0.17 and the “Inhibition Rate %” value ([4]; 60 mg/kg it × 10 qd) was 63.24%. The “Tumor Weight X ± SD” value ([4]; 60 mg/kg it × 10 qd) was 0.68 ± 0.19, the IC50 (H-460 lung cancer; H460, 24 h) was 89.5 µg/mL and the IC50 (H-460 lung cancer; H460, 48 h) was 70.6 µg/mL. The IC50 (H-460 lung cancer; H460, 72 h) was 68.2 µg/mL, the “IC50 in human glioma cells” value (human glioma cells; 24 hr) was 95.52 µg/mL and the “IC50 in human glioma cells” value (human glioma cells; 48 hr) was 88.48 µg/mL. For the same substance, the “IC50 in human glioma cells” value (human glioma cells; 72 hr) was 93.34 µg/mL.
